Test results published in patent publication US20260191858A1, “COMBINATION THERAPIES” (Kallyope, Inc., priority 2022, published 2026).
pEC50: −log10 of the molar value.

target: T1, human GPR119 (hGPR119) (Homo sapiens, UniProt Q8TDV5); assay: cAMP accumulation assay in CHO-K1 cells stably expressing hGPR119; type: cell-based; conditions: cAMP HTRF, 60 minutes
T1 construct: expressed in transfected cells; host or cells: CHO-K1
T1 sequence (Q8TDV5 1-335): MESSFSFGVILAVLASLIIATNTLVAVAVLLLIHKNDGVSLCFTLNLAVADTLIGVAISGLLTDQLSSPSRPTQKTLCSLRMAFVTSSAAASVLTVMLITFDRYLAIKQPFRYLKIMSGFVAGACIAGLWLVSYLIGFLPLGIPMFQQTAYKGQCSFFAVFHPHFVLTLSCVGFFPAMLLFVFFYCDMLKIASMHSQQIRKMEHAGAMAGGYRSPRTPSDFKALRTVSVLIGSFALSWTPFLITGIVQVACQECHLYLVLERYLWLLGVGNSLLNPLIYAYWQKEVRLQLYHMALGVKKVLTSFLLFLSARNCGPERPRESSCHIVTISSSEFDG
Method: CHO-K1 cells stably expressing human GPR119 (hGPR119) were prepared by transfection of a GPR119-carrying plasmid using Lipofectamine 2000 (following manufacturer instructions). A stable cell line was established using the limiting dilution method with geneticine selection. Assay-ready frozen (ARF) cells were prepared and used throughout the study.
The assay was performed in a 384-well plate format using the CAMP Gs dynamic assay kit from Cisbio. ARF cells expressing hGPR119 were thawed, washed and then resuspended in CAMP stimulation buffer at a cell density of 1.1×10^6 cells/mL. Cells were plated at a density of ~10,000 cells/well (9 μL/well). Dose response curves for the tested compounds were prepared in a cAMP stimulation buffer, containing 0.1% Tween 80 at 4 fold the final concentration. The compounds were then transferred to the cell plates using BRAVO (3 μL/well) and the plates were incubated for 60 minutes at 37° C./5% CO2. Detection buffer (10 μL, prepared as described in the CAMP Gs dynamic kit) were added to each well, and the plates were incubated at ambient temperature for 1 hr.
RT-FRET was measured using a ClarioSTAR plate reader, calculating the ratio between emissions at 665 nm and 620 nm (HTRF ratio). The HTRF ratio for positive (Max) and negative (Min) controls were used to normalize HTRF data and generate values for % activity. EC50 and Max activity values were determined using a standard 4-parameter fit.

Row | SMILES | pEC50
1 | NCCOCCOCCNCC1CN(C(=O)Cc2ccc(OCCCC3CCN(c4ncc(Cl)cn4)CC3)cc2F)C1 [Compound A24, 1-[3-[[2-[2-(2-aminoethoxy)ethoxy]ethylamino]methyl]azetidin-1-yl]-2-[4-[3-[1-(5-chloropyrimidin-2-yl)-4-piperidyl]propoxy]-2-fluoro-phenyl]ethanone] | 6.00 to 7.00
2 | O=C(Cc1ccc(OCCCC2CCN(c3ncc(Cl)cn3)CC2)cc1F)N1CC(CCNCC(O)(CO)CO)C1 [Compound A28, 2-(4-(3-(1-(5-chloropyrimidin-2-yl)piperidin-4-yl)propoxy)-2-fluorophenyl)-1-(3-(2-((2,3-dihydroxy-2-(hydroxymethyl)propyl)amino)ethyl)azetidin-1-yl)ethan-1-one] | 6.00 to 7.00
3 | O=C(Cc1ccc(OCCCC2CCN(c3ncc(Cl)cn3)CC2)cc1F)N1CC(CCNC(CO)(CO)CO)C1 [Compound A29, 2-(4-(3-(1-(5-chloropyrimidin-2-yl)piperidin-4-yl)propoxy)-2-fluorophenyl)-1-(3-(2-((1,3-dihydroxy-2-(hydroxymethyl)propan-2-yl)amino)ethyl)azetidin-1-yl)ethan-1-one] | 6.00 to 7.00
4 | O=C(NCCNCCC1CN(C(=O)Cc2ccc(OCCCC3CCN(c4ncc(Cl)cn4)CC3)cc2F)C1)NC(CO)(CO)CO [Compound A30, 1-(2-((2-(1-(2-(4-(3-(1-(5-chloropyrimidin-2-yl)piperidin-4-yl)propoxy)-2-fluorophenyl)acetyl)azetidin-3-yl)ethyl)amino)ethyl)-3-(1,3-dihydroxy-2-(hydroxymethyl)propan-2-yl)urea] | 6.00 to 7.00
5 | O=C(Cc1ccc(OCCCC2CCN(c3ncc(Cl)cn3)CC2)cc1F)N1CC(CCNC[C@H](O)[C@@H](O)[C@H](O)[C@H](O)CO)C1 [Compound A31, 2-[4-[3-[1-(5-chloropyrimidin-2-yl)-4-piperidyl]propoxy]-2-fluoro-phenyl]-1-[3-[2-[[(2S,3R,4R,5R)-2,3,4,5,6-pentahydroxyhexyl]amino]ethyl]azetidin-1-yl]ethanone] | 6.00 to 7.00
6 | CCc1cnc(N2CCC(CCCOc3ccc(CC(=O)N4CC(CNCC(CO)CO)C4)c(F)c3)CC2)nc1 [Compound A32, 2-(4-(3-(1-(5-ethylpyrimidin-2-yl)piperidin-4-yl)propoxy)-2-fluorophenyl)-1-(3-(((3-hydroxy-2-(hydroxymethyl)propyl)amino)methyl)azetidin-1-yl)ethan-1-one] | 6.00 to 7.00
7 | CCc1cnc(N2CCC(CCCOc3ccc(CC(=O)N4CC(CNCCNC(=O)NC(CO)(CO)CO)C4)c(F)c3)CC2)nc1 [Compound A35, 1-(1,3-dihydroxy-2-(hydroxymethyl)propan-2-yl)-3-(2-(((1-(2-(4-(3-(1-(5-ethylpyrimidin-2-yl)piperidin-4-yl)propoxy)-2-fluorophenyl)acetyl)azetidin-3-yl)methyl)amino)ethyl)urea] | ≥ 7.00
8 | CCc1cnc(N2CCC(CCCOc3cc(F)c(CC(=O)N4CC(CNCC(O)(CO)CO)C4)c(F)c3)CC2)nc1 [Compound A37, 1-(3-(((2,3-dihydroxy-2-(hydroxymethyl)propyl)amino)methyl)azetidin-1-yl)-2-(4-(3-(1-(5-ethylpyrimidin-2-yl)piperidin-4-yl)propoxy)-2,6-difluorophenyl)ethan-1-one] | ≥ 7.00
9 | CCc1cnc(N2CCC(CCCOc3cc(F)c(CC(=O)N4CC(CNCCNC(=O)NC(CO)(CO)CO)C4)c(F)c3)CC2)nc1 [Compound A38, 1-(1,3-dihydroxy-2-(hydroxymethyl)propan-2-yl)-3-(2-(((1-(2-(4-(3-(1-(5-ethylpyrimidin-2-yl)piperidin-4-yl)propoxy)-2,6-difluorophenyl)acetyl)azetidin-3-yl)methyl)amino)ethyl)urea] | ≥ 7.00
10 | CCCc1cnc(N2CCC(CCCOc3ccc(CC(=O)N4CC(CNCC(CO)CO)C4)c(F)c3)CC2)nc1 [Compound A40, 2-(2-fluoro-4-(3-(1-(5-propylpyrimidin-2-yl)piperidin-4-yl)propoxy)phenyl)-1-(3-(((3-hydroxy-2-(hydroxymethyl)propyl)amino)methyl)azetidin-1-yl)ethan-1-one] | ≥ 7.00
11 | CCCc1cnc(N2CCC(CCCOc3ccc(CC(=O)N4CC(CNCC(O)(CO)CO)C4)c(F)c3)CC2)nc1 [Compound A41, 1-(3-(((2,3-dihydroxy-2-(hydroxymethyl)propyl)amino)methyl)azetidin-1-yl)-2-(2-fluoro-4-(3-(1-(5-propylpyrimidin-2-yl)piperidin-4-yl)propoxy)phenyl)ethan-1-one] | ≥ 7.00
12 | CCCc1cnc(N2CCC(CCCOc3ccc(CC(=O)N4CC(CNC(CO)(CO)CO)C4)c(F)c3)CC2)nc1 [Compound A42, 1-(3-(((1,3-dihydroxy-2-(hydroxymethyl)propan-2-yl)amino)methyl)azetidin-1-yl)-2-(2-fluoro-4-(3-(1-(5-propylpyrimidin-2-yl)piperidin-4-yl)propoxy)phenyl)ethan-1-one] | ≥ 7.00

Other lines, results leading:

Row | pEC50 | SMILES
13 | ≥ 7.00 | O=C(Cc1ccc(OCCCC2CCN(c3ncc(Cl)cn3)CC2)cc1F)N1CC(CN2C[C@@H](O)[C@@H](O)[C@@H](O)C2)C1 [Compound A22, 2-[4-[3-[1-(5-chloropyrimidin-2-yl)-4-piperidyl]propoxy]-2-fluoro-phenyl]-1-[3-[[rac-(3R,5S)-3,4,5-trihydroxy-1-piperidyl]methyl]azetidin-1-yl]ethanone]
14 | ≥ 7.00 | O=C(Cc1ccc(OCCCC2CCN(c3ncc(Cl)cn3)CC2)cc1F)N1CC(CNCCOCCOCCO)C1 [Compound A23]
15 | ≥ 7.00 | O=C(Cc1c(F)cc(OCCCC2CCN(c3ncc(Cl)cn3)CC2)cc1F)N1CC(CNC[C@H](O)[C@@H](O)[C@H](O)[C@H](O)CO)C1 [Compound A25, 2-[4-[3-[1-(5-chloropyrimidin-2-yl)-4-piperidyl]propoxy]-2,6-difluoro-phenyl]-1-[3-[[[(2S,3R,4R,5R)-2,3,4,5,6-pentahydroxyhexyl]amino]methyl]azetidin-1-yl]ethanone]
16 | ≥ 7.00 | O=C(Cc1ccc(OCCCC2CCN(c3ncc(Cl)cn3)CC2)cc1F)N1CC(CCNC(CO)CO)C1 [Compound A26, 2-(4-(3-(1-(5-chloropyrimidin-2-yl)piperidin-4-yl)propoxy)-2-fluorophenyl)-1-(3-(2-((1,3-dihydroxypropan-2-yl)amino)ethyl)azetidin-1-yl)ethan-1-one]
17 | ≥ 7.00 | O=C(Cc1ccc(OCCCC2CCN(c3ncc(Cl)cn3)CC2)cc1F)N1CC(CCNCC(CO)CO)C1 [Compound A27, 2-(4-(3-(1-(5-chloropyrimidin-2-yl)piperidin-4-yl)propoxy)-2-fluorophenyl)-1-(3-(2-((3-hydroxy-2-(hydroxymethyl)propyl)amino)ethyl)azetidin-1-yl)ethan-1-one]
18 | ≥ 7.00 | CCc1cnc(N2CCC(CCCOc3ccc(CC(=O)N4CC(CNCC(O)(CO)CO)C4)c(F)c3)CC2)nc1 [Compound A33, 1-(3-(((2,3-dihydroxy-2-(hydroxymethyl)propyl)amino)methyl)azetidin-1-yl)-2-(4-(3-(1-(5-ethylpyrimidin-2-yl)piperidin-4-yl)propoxy)-2-fluorophenyl)ethan-1-one]
19 | ≥ 7.00 | CCc1cnc(N2CCC(CCCOc3ccc(CC(=O)N4CC(CNC(CO)(CO)CO)C4)c(F)c3)CC2)nc1 [Compound A34, 1-(3-(((1,3-dihydroxy-2-(hydroxymethyl)propan-2-yl)amino)methyl)azetidin-1-yl)-2-(4-(3-(1-(5-ethylpyrimidin-2-yl)piperidin-4-yl)propoxy)-2-fluorophenyl)ethan-1-one]
